Measured values from PMC7284125, “Identification of annotated bioactive molecules that impair motility of the blood fluke Schistosoma mansoni” (International Journal for Parasitology: Drugs and Drug …, 2020).

These compounds were tested on S. mansoni schistosomulae (assay: Motility assay on schistosomulae (pixel displacement, relative to DMSO control)). Settings: Schistosoma mansoni, 120 h; schistosomulae, secondary screen, 24h exposure, read at D5, 1 µM; read-out: Fractional motility.
Assay type: cell-based, Schistosoma mansoni
Description: Puerto Rican strain Biomphalaria glabrata snails infected with S. mansoni were kindly provided by Dr. Fred Lewis (Biomedical Research Institute and BEI Resources, MD, USA). Schistosomulae were obtained by exposing six to eight weeks-old snails to continuous light for 2 h at 32 °C. The resulting suspension of cercaria was then mechanically transformed as described ([Lewis, 2001]) and cultured in Opti-MEM/antibiotics (Thermo Fisher Scientific, Waltham, MA) containing 100 μg/mL streptomycin and 100 units/ml penicillin supplemented with 5% fetal bovine serum (FBS; Thermo Fisher). Parasite cultures were incubated at 37 °C with 5% CO2 for at least 10 days with no apparent loss of viability. At this point, animals with internal dark granulations and with no observable body contraction/relaxation cycles were considered dead.
(§1) Schistosomulae (200/well) and adult parasites (unpaired worms) were maintained in 300 μL OPTI-MEM with 5% dialyzed FBS (without antibiotics) and exposed to compounds at 1 and 10 μM for 24 h. A kinetic assay consisting of 1, 3, 6 and 12 h incubation times was performed on selected hits by motility monitoring using a stereo microscope (SMZ1270, Nikon) for adults and an inverted microscope for schistosomulae (eclipse TE2000-U, Nikon) connected to a monochrome camera (DS-Qi2, Nikon) for image acquisition. Images were recorded at a rate of 10 frames/s for a period of 1 min and videos were analyzed using ImageJ software (version 1.41, NIH, USA). Parasite movement quantification and data analysis protocols were applied using the pixel displacement method ([Patocka et al., 2014]; [Rashid et al., 2015]) and compared to control parasites treated with DMSO. Parasites were then washed several times in Opti-MEM, 5% FBS and incubated up to an additional three days (schistosomulae) or five days (adult worms) at 37 °C, 5% CO2 and motility was recorded as described above.

Structure (SMILES) | activity at 1 µM [%]
CCCCc1oc2ccccc2c1C(=O)c1cc(I)c(OCCN(CC)CC)c(I)c1 [Amiodarone] | 78

Same assay, conditions: Schistosoma mansoni; schistosomulae, secondary screen, 24h exposure, read at D1, 1 µM; read-out: Fractional motility

Structure (SMILES) | activity at 1 µM [%]
CCCCc1oc2ccccc2c1C(=O)c1cc(I)c(OCCN(CC)CC)c(I)c1 [Amiodarone] | -11

Same assay, conditions: Selleckchem customized library secondary screen, 24h, D1, 1 µM

Structure (SMILES) | Fractional motility
O=c1[nH]c2ccc(Cl)cc2c(N[C@@H]2CN3CCC2CC3)c1-c1nc2ccccc2[nH]1 [CHIR-124] | 6.60

Same assay, conditions: Selleckchem customized library secondary screen, 24h, D1, 10 µM

Structure (SMILES) | Fractional motility
O=c1[nH]c2ccc(Cl)cc2c(N[C@@H]2CN3CCC2CC3)c1-c1nc2ccccc2[nH]1 [CHIR-124] | 100.65

Same assay, conditions: schistosomulae, 1h exposure, read at D1, 10 µM

Structure (SMILES) | Fractional motility
c1cc(-c2cnn3cc(-c4ccc(N5CCNCC5)cc4)cnc23)c2cccnc2c1 [LDN-212854] | 9.63
CCOC(=O)CCNc1cc(N2CCc3ccccc3CC2)nc(-c2ccccn2)n1 [GSK J4] | 0.43

Same assay, conditions: schistosomulae, 1h exposure, read at D5, 10 µM

Structure (SMILES) | Fractional motility
c1cc(-c2cnn3cc(-c4ccc(N5CCNCC5)cc4)cnc23)c2cccnc2c1 [LDN-212854] | -0.87
CCOC(=O)CCNc1cc(N2CCc3ccccc3CC2)nc(-c2ccccn2)n1 [GSK J4] | 0.28

Same assay, conditions: schistosomulae, 3h exposure, read at D1, 10 µM

Structure (SMILES) | Fractional motility
c1cc(-c2cnn3cc(-c4ccc(N5CCNCC5)cc4)cnc23)c2cccnc2c1 [LDN-212854] | -0.97
CCOC(=O)CCNc1cc(N2CCc3ccccc3CC2)nc(-c2ccccn2)n1 [GSK J4] | -0.55

Same assay, conditions: schistosomulae, 3h exposure, read at D5, 10 µM

Structure (SMILES) | Fractional motility
c1cc(-c2cnn3cc(-c4ccc(N5CCNCC5)cc4)cnc23)c2cccnc2c1 [LDN-212854] | -0.97
CCOC(=O)CCNc1cc(N2CCc3ccccc3CC2)nc(-c2ccccn2)n1 [GSK J4] | -0.56

Same assay, conditions: schistosomulae, 6h exposure, read at D1, 10 µM

Structure (SMILES) | Fractional motility
c1cc(-c2cnn3cc(-c4ccc(N5CCNCC5)cc4)cnc23)c2cccnc2c1 [LDN-212854] | -0.98
CCOC(=O)CCNc1cc(N2CCc3ccccc3CC2)nc(-c2ccccn2)n1 [GSK J4] | -0.78

Same assay, conditions: schistosomulae, 6h exposure, read at D5, 10 µM

Structure (SMILES) | Fractional motility
c1cc(-c2cnn3cc(-c4ccc(N5CCNCC5)cc4)cnc23)c2cccnc2c1 [LDN-212854] | -0.92
CCOC(=O)CCNc1cc(N2CCc3ccccc3CC2)nc(-c2ccccn2)n1 [GSK J4] | -0.70

Same assay, conditions: schistosomulae, secondary screen, 24h exposure, read at D1, 1 µM

Structure (SMILES) | Fractional motility
C/C(=N\NC(=S)N1CCC1)c1ccccn1 [NSC319726] | 0.0562
c1cc(-c2cnn3cc(-c4ccc(N5CCNCC5)cc4)cnc23)c2cccnc2c1 [LDN-212854] | 3.02
CCOC(=O)CCNc1cc(N2CCc3ccccc3CC2)nc(-c2ccccn2)n1 [GSK J4] | 0.46

Same assay, conditions: schistosomulae, secondary screen, 24h exposure, read at D1, 10 µM

Structure (SMILES) | Fractional motility
CCCCc1oc2ccccc2c1C(=O)c1cc(I)c(OCCN(CC)CC)c(I)c1 [Amiodarone] | -0.80
C/C(=N\NC(=S)N1CCC1)c1ccccn1 [NSC319726] | 0.59
c1cc(-c2cnn3cc(-c4ccc(N5CCNCC5)cc4)cnc23)c2cccnc2c1 [LDN-212854] | 11.26
CCOC(=O)CCNc1cc(N2CCc3ccccc3CC2)nc(-c2ccccn2)n1 [GSK J4] | -0.85

Same assay, conditions: schistosomulae, secondary screen, 24h exposure, read at D5, 1 µM

Structure (SMILES) | Fractional motility
C/C(=N\NC(=S)N1CCC1)c1ccccn1 [NSC319726] | -0.75
c1cc(-c2cnn3cc(-c4ccc(N5CCNCC5)cc4)cnc23)c2cccnc2c1 [LDN-212854] | -0.46
CCOC(=O)CCNc1cc(N2CCc3ccccc3CC2)nc(-c2ccccn2)n1 [GSK J4] | 0.88

Same assay, conditions: schistosomulae, secondary screen, 24h exposure, read at D5, 10 µM

Structure (SMILES) | Fractional motility
CCCCc1oc2ccccc2c1C(=O)c1cc(I)c(OCCN(CC)CC)c(I)c1 [Amiodarone] | -0.98
C/C(=N\NC(=S)N1CCC1)c1ccccn1 [NSC319726] | -0.93
c1cc(-c2cnn3cc(-c4ccc(N5CCNCC5)cc4)cnc23)c2cccnc2c1 [LDN-212854] | -0.80
CCOC(=O)CCNc1cc(N2CCc3ccccc3CC2)nc(-c2ccccn2)n1 [GSK J4] | -1.00

Same assay, conditions: three-day old schistosomulae, incubation 1 h, 3 h, 6 h

Structure (SMILES) | motility in extended assay with reduced incubation times, in words
c1cc(-c2cnn3cc(-c4ccc(N5CCNCC5)cc4)cnc23)c2cccnc2c1 [LDN-212854] | significant and sustained hypomotility

These compounds were tested on S. mansoni adult worms (assay: Motility assay on adult parasites (pixel displacement, relative to DMSO control)). Settings: adults, 10 μM, long-term after washout.
Assay type: cell-based, Schistosoma mansoni
Description: Adult parasites were collected from 40 day-old female CD1 mice (Charles River) previously inoculated by the tail infection method ([Lewis, 2001]). Six weeks post-infection, mice were sacrificed, and adult worms extracted after perfusion of in the hepatic portal vein and mesenteric venules ([Lewis, 2001]). Animal procedures were reviewed and approved by the Facility Animal Care Committee of McGill University (Protocol No. 3346) and were conducted in accordance with the guidelines of the Canadian Council on Animal Care.
as §1

Structure (SMILES) | motility phenotype in words
c1cc(-c2cnn3cc(-c4ccc(N5CCNCC5)cc4)cnc23)c2cccnc2c1 [LDN-212854] | Significant hypomotility
CCOC(=O)CCNc1cc(N2CCc3ccccc3CC2)nc(-c2ccccn2)n1 [GSK J4] | Significant hypomotility

Same assay, conditions: secondary screen, 10 μM, D1, Female adult worms

Structure (SMILES) | Fractional motility
CCCCc1oc2ccccc2c1C(=O)c1cc(I)c(OCCN(CC)CC)c(I)c1 [Amiodarone] | -0.67
C/C(=N\NC(=S)N1CCC1)c1ccccn1 [NSC319726] | -0.13
c1cc(-c2cnn3cc(-c4ccc(N5CCNCC5)cc4)cnc23)c2cccnc2c1 [LDN-212854] | 0.29
O=c1[nH]c2ccc(Cl)cc2c(N[C@@H]2CN3CCC2CC3)c1-c1nc2ccccc2[nH]1 [CHIR-124] | 4.53
CCOC(=O)CCNc1cc(N2CCc3ccccc3CC2)nc(-c2ccccn2)n1 [GSK J4] | -0.0455

Same assay, conditions: secondary screen, 10 μM, D1, Male adult worms

Structure (SMILES) | Fractional motility
CCCCc1oc2ccccc2c1C(=O)c1cc(I)c(OCCN(CC)CC)c(I)c1 [Amiodarone] | -0.41
C/C(=N\NC(=S)N1CCC1)c1ccccn1 [NSC319726] | -0.16
c1cc(-c2cnn3cc(-c4ccc(N5CCNCC5)cc4)cnc23)c2cccnc2c1 [LDN-212854] | 0.78
O=c1[nH]c2ccc(Cl)cc2c(N[C@@H]2CN3CCC2CC3)c1-c1nc2ccccc2[nH]1 [CHIR-124] | 10.48
CCOC(=O)CCNc1cc(N2CCc3ccccc3CC2)nc(-c2ccccn2)n1 [GSK J4] | -0.11

Same assay, conditions: secondary screen, 10 μM, D5, Female adult worms

Structure (SMILES) | Fractional motility
CCCCc1oc2ccccc2c1C(=O)c1cc(I)c(OCCN(CC)CC)c(I)c1 [Amiodarone] | -0.58
C/C(=N\NC(=S)N1CCC1)c1ccccn1 [NSC319726] | -0.84
c1cc(-c2cnn3cc(-c4ccc(N5CCNCC5)cc4)cnc23)c2cccnc2c1 [LDN-212854] | -0.84
O=c1[nH]c2ccc(Cl)cc2c(N[C@@H]2CN3CCC2CC3)c1-c1nc2ccccc2[nH]1 [CHIR-124] | -0.48
CCOC(=O)CCNc1cc(N2CCc3ccccc3CC2)nc(-c2ccccn2)n1 [GSK J4] | -0.64

Same assay, conditions: secondary screen, 10 μM, D5, Male adult worms

Structure (SMILES) | Fractional motility
CCCCc1oc2ccccc2c1C(=O)c1cc(I)c(OCCN(CC)CC)c(I)c1 [Amiodarone] | -0.38
C/C(=N\NC(=S)N1CCC1)c1ccccn1 [NSC319726] | -0.08
c1cc(-c2cnn3cc(-c4ccc(N5CCNCC5)cc4)cnc23)c2cccnc2c1 [LDN-212854] | -0.87
O=c1[nH]c2ccc(Cl)cc2c(N[C@@H]2CN3CCC2CC3)c1-c1nc2ccccc2[nH]1 [CHIR-124] | -0.25
CCOC(=O)CCNc1cc(N2CCc3ccccc3CC2)nc(-c2ccccn2)n1 [GSK J4] | -0.63

What follows are compounds tested on S. mansoni schistosomulae (assay: Phenotypic primary screen assay on schistosomulae (phenotype; viability by methylene blue dye exclusion)). Settings: three-day-old schistosomulae, 10 μM, 24 h; calculated 5 days post compound exposure.
Assay type: cell-based, Schistosoma mansoni
Description: Puerto Rican strain Biomphalaria glabrata snails infected with S. mansoni were kindly provided by Dr. Fred Lewis (Biomedical Research Institute and BEI Resources, MD, USA). Schistosomulae were obtained by exposing six to eight weeks-old snails to continuous light for 2 h at 32 °C. […] At this point, animals with internal dark granulations and with no observable body contraction/relaxation cycles were considered dead.
Schistosomulae were monitored under a stereo microscope (SMZ1270, Nikon). Phenotypic observations were made by analyzing schistosomulae, 24 h after drug addition to assess any immediate effect and five days post-compound exposure to observe long-term impacts on both the movement and overall body shape in comparison to control animals exposed to DMSO only.

Structure (SMILES) | Viability (%)
C/C(=N\NC(=S)N1CCC1)c1ccccn1 [NSC319726] | 68
c1cc(-c2cnn3cc(-c4ccc(N5CCNCC5)cc4)cnc23)c2cccnc2c1 [LDN-212854] | 0
O=c1[nH]c2ccc(Cl)cc2c(N[C@@H]2CN3CCC2CC3)c1-c1nc2ccccc2[nH]1 [CHIR-124] | 77
CCOC(=O)CCNc1cc(N2CCc3ccccc3CC2)nc(-c2ccccn2)n1 [GSK J4] | 5

Same assay, conditions: three-day-old schistosomulae, 10 μM, 24 h; estimated 5 days post compound exposure

Structure (SMILES) | Phenotype
CCCCc1oc2ccccc2c1C(=O)c1cc(I)c(OCCN(CC)CC)c(I)c1 [Amiodarone] | big, granulated
C/C(=N\NC(=S)N1CCC1)c1ccccn1 [NSC319726] | dark, granulated
c1cc(-c2cnn3cc(-c4ccc(N5CCNCC5)cc4)cnc23)c2cccnc2c1 [LDN-212854] | dark, granulated
O=c1[nH]c2ccc(Cl)cc2c(N[C@@H]2CN3CCC2CC3)c1-c1nc2ccccc2[nH]1 [CHIR-124] | big
CCOC(=O)CCNc1cc(N2CCc3ccccc3CC2)nc(-c2ccccn2)n1 [GSK J4] | big, dark, granulated
